Laboratory results: article PMC6155308 (Molecules : A Journal of Synthetic Chemistry and Natural …, 2017)

Target: T1, BpsCAβ (β-carbonic anhydrase) (Burkholderia pseudomallei, UniProt Q63Y17)
T1 construct: gene BPSL0372
Experiment: biochemical

T1 sequence (Q63Y17 1-256 limits assumed): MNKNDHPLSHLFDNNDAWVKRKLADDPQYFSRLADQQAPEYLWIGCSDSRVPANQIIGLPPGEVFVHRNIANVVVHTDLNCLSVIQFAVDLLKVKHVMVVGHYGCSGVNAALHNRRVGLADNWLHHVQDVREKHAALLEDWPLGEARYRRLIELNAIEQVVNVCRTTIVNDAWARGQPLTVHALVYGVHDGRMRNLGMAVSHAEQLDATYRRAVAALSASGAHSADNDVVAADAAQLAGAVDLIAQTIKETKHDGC

SMILES	Ki [µM]
Nc1nnc(S(N)(=O)=O)s1 [compound 13, deacetylated derivative of AAZ]	3.06
Nc1ccc(S(N)(=O)=O)cc1 [compound 2, sulfanilamide]	3.89
Nc1ccc(S(=O)(=O)Nc2nnc(S(N)(=O)=O)s2)cc1 [compound 20, aminobenzolamide]	0.266
CCN[C@H]1CN(CCCOC)S(=O)(=O)c2sc(S(N)(=O)=O)cc21 [BRZ, brinzolamide]	4.27
Nc1ccc(S(N)(=O)=O)cc1F [compound 7, 7]	> 50
CC1(C)O[C@@H]2[C@@H](CO[C@@]3(COS(N)(=O)=O)OC(C)(C)O[C@@H]23)O1 [TPM, topiramate]	> 50
NS(=O)(=O)c1cc(Cl)c(Cl)c(S(N)(=O)=O)c1 [DCP, dichlorophenamide]	0.529
CC(=O)N=c1sc(S(N)(=O)=O)nn1C [MZA, methazolamide]	0.186
NS(=O)(=O)c1ccc(S(=O)(=O)Nc2cccc3c(Cl)c[nH]c23)cc1 [IND, indisulam]	4.37
Cn1nc(S(N)(=O)=O)sc1=N [compound 14, deacetylated derivative of MZA]	2.5
Cc1ccc(S(N)(=O)=O)cc1 [compound 4, 4]	> 50
NS(=O)(=O)c1cc(Cl)cc(Cl)c1O [compound 10, 10]	4.1
NS(=O)(=O)c1cccc(S(N)(=O)=O)c1 [compound 3, 3]	3.17
NCc1ccc(S(N)(=O)=O)cc1 [compound 5, 5]	3.9
Nc1ccc(S(N)(=O)=O)cc1Cl [compound 8, 8]	> 50
NS(=O)(=O)Cc1noc2ccccc12 [ZNS, zonisamide]	4.06
Cc1ccc(-c2cc(C(F)(F)F)nn2-c2ccc(S(N)(=O)=O)cc2)cc1 [CLX, celecoxib]	> 50
Nc1cccc(S(N)(=O)=O)c1 [compound 1, metanilamide]	> 50
Nc1ccc(S(N)(=O)=O)cc1Br [compound 9, 9]	> 50
